{"source": "paper PMC11904948", "about": "“Peptide‐Drug Conjugate for Therapeutic Reprogramming of Tumor‐Associated Macrophages in Breast Cancer” (Advanced Science, 2025)", "key": {"[1]": {"assay": "Hepatic and renal toxicity serum levels in healthy mice", "format": "in vivo", "settings": "48 h after one i.p. dose of 3 mg/Kg, healthy Balb/c mice, n = 4", "protocol": "To investigate potential off‐target risk in vivo caused by MACTIDE‐V we analyzed the serum levels of the hepatic enzyme alanine aminotransferase (ALAT) following a 3 mg Kg^−1 dose of MACTIDE‐V in healthy mice. If MACTIDE‐V causes off‐target inflammation, it would likely occur in the liver (the organ that expresses the MACTIDE receptor) and would reflect on ALAT levels (liver inflammation produces a > 2‐fold increase in ALAT^[ [35] ^]).\nTable S1. Hepatic and renal toxicity analysed following one dose of MACTIDE-V. Hepatic and renal toxicology serum levels of Crea and ALAT 48 h after i.p.-administration of MACTIDE-V (3 mg/kg) in healthy Balb/c mice (n=4). Normal ranges were obtained from Mouse Phenome Database by The Jackson Laboratory."}, "[2]": {"system": "Balb/c BMDM", "assay": "Flow cytometry of marker expression on Balb/c BMDM", "format": "cell-based, mouse", "settings": "10 µM 4 h, 48 h after treatment, n = 4", "protocol": "Figure 6 MACTIDE‐V promotes a YAP‐ mediated anti‐ tumoral switch in bone marrow‐derived macrophages. Day 5 BMDM were incubated for 4 h with 10 µM conjugates, washed, and followed‐up in media. A) YAP Immunofluorescence (shown in red) was analyzed 3 h after treatment and B) phagocytosis of fluorescent E. coli particles at 48 h follow‐up. C) Flow cytometry on BMDM 48 h after treatment. Left panel, GeoMean of MHC II, CD206, CD80, and PD‐L1 in Balb/c BMDM. Median ± interquartile range. Repeated measures one‐way ANOVA with multiple comparisons, for n = 4 independent experiments. ^* p ≤ 0.05, ^** p ≤ 0.01. D) Heatmap of the mRNA expression of genes involved in the functional activation of BMDM, YAP signaling, and adhesion, measured by real‐time PCR 48 h after treatment in BALB/c BMDM. n = 3 independent experiments. […]\nAt the mRNA level, MACTIDE‐V induced a clear increase in Il‐12, Chil3 and Nos2 genes, (Figure 6D, left panel). […] To further investigate whether the effect of MACTIDE‐V was mediated by YAP targeting, we analyzed a set of 7 YAP‐regulated genes (Figure 6D, right panel). […]"}, "[3]": {"system": "BMDM obtained from C57/Bl6 (B6) mice", "assay": "Flow cytometry and real-time PCR on B6 BMDM", "format": "cell-based, mouse", "protocol": "At the mRNA level, MACTIDE‐V induced a clear increase in Il‐12, Chil3 and Nos2 genes, (Figure 6D, left panel). […] To further investigate whether the effect of MACTIDE‐V was mediated by YAP targeting, we analyzed a set of 7 YAP‐regulated genes (Figure 6D, right panel).\nFigure S6. In vitro effect of MACTIDE-V on B6 mice-derived BMDMs. (A) Flow cytometry on BMDMs 48 h after treatment. GeoMean of MHC II in B6 BMDM, n=4 independent experiments. *p≤0.05. (B) Heatmap of the mRNA expression of genes involved in the functional activation of BMDM, measured by real-time PCR 48 h after treatment in B6 BMDM, n=2 independent experiments."}, "[4]": {"assay": "Solubility in water", "format": "physicochemical", "settings": "method not given", "text": "Verteporfin (V), is a photosensitizer and inhibitor of the activation of YAP.^[ [41] ^] […] Verteporfin, in its liposomal formulation Visudyne, is an approved drug for certain ophthalmological indications. In clinical trials for cancer therapy, Verteporfin is mostly used for photodynamic therapy (clinical trial identifiers: NCT03067051, NCT03033225, NCT04590664)."}}, "data": [{"substance": "Vert‐Ahx‐G(CTKSIPPIC)SPGAK‐OH (disulfide) [MACTIDE‐V]", "values": [{"measurement": "Creatinine, serum", "setting": "[1]; normal range 10-36", "result": "11.8 ± 1", "unit": "µM"}, {"measurement": "Alanine aminotransferase, serum", "setting": "[1]; normal range 50-90", "result": "52 ± 10.5", "unit": "U/I"}, {"measurement": "expression of CD80 (GeoMean)", "setting": "[2]", "result": "no significant changes"}, {"measurement": "expression of CD206 (GeoMean)", "setting": "[2]", "result": "no significant changes"}, {"measurement": "expression of MHC II (GeoMean)", "setting": "[2]; versus CtrlPep‐V and untreated", "result": "upregulated"}, {"measurement": "expression of PD‐L1 (GeoMean)", "setting": "[2]; versus CtrlPep‐V and untreated", "result": "upregulated"}, {"measurement": "MHCII expression in B6 BMDM (GeoMean)", "setting": "[3]; flow cytometry 48 h after treatment, n = 4", "result": "increased MHCII expression"}, {"measurement": "inflammatory gene mRNA expression in B6 BMDM", "setting": "[3]; real-time PCR 48 h after treatment, n = 2", "result": "upregulated the inflammatory genes Il‐1b, Il‐12 and Nos2"}, {"measurement": "solubilization of Verteporfin by conjugation", "setting": "[4]", "result": "able to solubilize Verteporfin"}]}]}
